According to patent US20230067676A1, “CO-CRYSTALS AND SALTS OF 8-CHLORO-N-(4-(TRIFLUOROMETHOXY)PHENYL)QUINOLIN-2-AMINE” (ABIVAX, priority 2020, published 2023):
≈ marks a conversion by molar mass, not a printed value. Where two headings read alike, the source gives them in different places.

Experiments:
[1] = Two-steps Dissolution/Precipitation in vitro Human Fasted model (gastric then intestinal compartment); assay type: physicochemical; details: for Crystalline phase conversion as detected by XRPD: solid residues collected in the fasted Dissolution/Precipitation test
Protocol: Samples were analysed by HPLC-UV according to the following method: • Instrument: Agilent 1200 and 1100 with PDA detector • Column: Waters XTerra MS C18 3.5 μm 4.6×50 mm • Flow rate: 1.5 ml/min • UV detection: 220 nm, 270 nm, 290 nm • Column temperature: 40° C. • Injection volume: 1 μl • Mobile phase: gradient with solutions A and B prepared according to the following: • Eluent A: Ultrapurified water adjusted to pH2 with orthophosphoric acid 85% • Eluent B: Acetonitrile
The ABX464 crystalline Form I, and anhydrous ABX464 hemi-Napadisylate salt have been evaluated in the Two-steps Dissolution/Precipitation in vitro Human model.
The model consists in the following steps: • Dispensing selected material in Fasted simulated gastric medium containing 1% w PVPVA (inhibitor of precipitation) and then after 30 min, • Diluting obtained suspension by simulated Fasted intestinal medium.
Using this model, the dissolution of selected materials (ABX464 crystalline Form I, or anhydrous BX464 hemi-Napadisylate salt) in gastric medium and the risk of precipitation of the API (Active Pharmaceutical Ingredient) in intestinal compartment is evaluated.
The crystalline nature of solid residues collected by end of each steps (Gastric and Intestinal) have been determined by XRPD after centrifugation (15 min at 18000 rpm).
Protocol for Dissolution/Precipitation Model in Human Fasted Conditions • In 6 different vials, 4.0 mg equivalent ABX464 of selected material are weighed • Solubility measurement in the gastric compartment (also named G) after 15 min (G15 min) and after 30 min (G30 min) which comprises the following steps: • Adding 1 mL of FaSSGF pH 1.2 medium containing 1% w PVPVA (ABX464 target concentration=4 mg/ml) on the 6 vials, • Mixing with a vortex at 37° C. • At times 15 min and 30 min, considering one vial (vials labelled G15 min and G30 min respectively) and for each vials • noting the aspect of suspension, • centrifuging 5 min at 18000 rpm and filtering on a 0.45 μm filter (filter Millex LCR Ref. SLCR0,13NK). • Measuring the pH of supernatant, • Dosing ABX464 soluble fraction by HPLC, • Recording XPRD pattern on the final time point sample. • Solubility measurement in the intestinal compartment (also named I) after 15 min (vial I 15 min), 30 min (vial I 30 min), 60 min (vial I 60 min) and 120 min (vial I 120 min) which comprises the following steps: • Adding 1 mL of FaSSIF ×2 pH 6.5 medium/sodium bicarbonate 90/10) on the 4 remaining vials (ABX464 target concentration=2 mg/ml) • Mixing with a Vortex at 37° C. • At times 15 min, 30 min, 60 min and 120 min, considering one vial (vials labelled I 15 min, I 30 min, I 60 min and I 120 min respectively) and for each vials • noting the aspect of suspension • Centrifuging 5 min at 18000 rpm and filtering on a 0.45 μm filter (filter Millex LCR Ref. SLCR0,13NK). • Measuring the pH of supernatant • Dosing ABX464 soluble fraction by HPLC • Recording XPRD pattern on the final time point sample.
Composition and preparation of biorelevant media in Fasted conditions (see tables 11 and 12): • Fasted Gastric medium=FaSSGF pH=1.2/1% PVPVA w/v
• Fasted Intestinal medium (FaSSIF X2 pH=6.5/Sodium Bicarbonate at 80 g/l 90/10 v/v) Composition/Preparation of FaSSIF ×2 (medium concentrated 2 times to take into account the dilution in the Fasted model):
The FaSSIF X2/Sodium Bicarbonate 80 g/l (90/10; v/v) mixture was prepared to keep pH equal to 6.5 in the intestinal compartment after dilution.

[2] = Kinetic solubility in two aqueous media (FaSSIF pH 6.5 + 1% PVPVA; FeSSIF pH 5.0 + 1% PVPVA); details: for Solubility compared to the ABX464 crystalline Form I: FaSSIF and FeSSIF media (+ 1% PVPVA), at each time; for Kinetic solubility: room temperature, 2 mg/ml equivalent ABX464 target
Protocol: (§1) These two specific aqueous media are more particularly: • FaSSIF (namely Fasted State Simulated Intestinal Fluid) pH=6.5+1% by weight of PVPVA (polyvinyl pyrrolidone-vinyl acetate: a precipitation inhibitor); and • FeSSIF (namely Fed State Simulated Intestinal Fluid) pH=5.0+1% by weight of PVPVA (a precipitation inhibitor)
(§2) To make 5 mL of FeSSIF the steps were as follows: • weighing 56.0 mg of SIF Powder, adding 350 μl of FeSSIF Buffer Concentrate then making up to 5.0 mL with ultrapurified water; and adding 1% w/w PVPVA.

physchem = details: thermodynamic from solid
Protocol: as §1, §2

[3] = FaSSIF pH 6.5 + 1% PVPVA, pH 6.5, aqueous with cosolvent or surfactant or cyclodextrin
[4] = FeSSIF + 1% PVPVA, pH 5, aqueous with cosolvent or surfactant or cyclodextrin
[5] = FeSSIF pH 5 + 1% PVPVA, pH 5, aqueous with cosolvent or surfactant or cyclodextrin

FC(F)(F)Oc1ccc(Nc2ccc3cccc(Cl)c3n2)cc1.FC(F)(F)Oc1ccc(Nc2ccc3cccc(Cl)c3n2)cc1.O=S(=O)(O)c1cccc2c(S(=O)(=O)O)cccc12 [anhydrous ABX464 hemi-Napadisylate salt]
Soluble fraction ([1]; gastric compartment, vial G 15 min, FaSSGF pH 1.2 + 1% PVPVA, 37° C., target about 4 mg/ml): 0.05 mg/mL
Soluble fraction ([1]; gastric compartment, vial G 30 min, FaSSGF pH 1.2 + 1% PVPVA, 37° C., target about 4 mg/ml): 0.06 mg/mL
Solubility (ABX464 soluble fraction) in the intestinal compartment ([1]; intestinal compartment at pH 6.5 of the fasted human in vitro model): ~430 µg/mL
Soluble fraction ([1]; intestinal compartment, vial I 15 min (45 min total), FaSSIF x2 pH 6.5/sodium bicarbonate 90/10 added, 37° C., target about 2 mg/ml): 0.17 mg/mL
Soluble fraction ([1]; intestinal compartment, vial I 30 min (60 min total), FaSSIF x2 pH 6.5/sodium bicarbonate 90/10 added, 37° C., target about 2 mg/ml): 0.23 mg/mL
Soluble fraction ([1]; intestinal compartment, vial I 60 min (90 min total), FaSSIF x2 pH 6.5/sodium bicarbonate 90/10 added, 37° C., target about 2 mg/ml): 0.32 mg/mL
Soluble fraction ([1]; intestinal compartment, vial I 120 min (150 min total), FaSSIF x2 pH 6.5/sodium bicarbonate 90/10 added, 37° C., target about 2 mg/ml): 0.43 mg/mL
Crystalline phase conversion as detected by XRPD ([1]; intestinal compartment): no crystalline phase conversion
Solubility compared to the ABX464 crystalline Form I [2]: higher solubility
Solubility compared to the ABX464 crystalline Form I ([2]; listed as ABX464 hemi-Napadisylate salt): significant higher solubility
Kinetic solubility ([2]; FassiF pH 6.5 + 1% PVPVA, sampling time 5 min): 70 µg/mL
Kinetic solubility ([2]; FassiF pH 6.5 + 1% PVPVA, sampling time 30 min): 116 µg/mL
Kinetic solubility ([2]; FassiF pH 6.5 + 1% PVPVA, sampling time 2 h): 149 µg/mL
Kinetic solubility ([2]; FassiF pH 6.5 + 1% PVPVA, sampling time 4 h): 206 µg/mL
Kinetic solubility ([2]; FassiF pH 6.5 + 1% PVPVA, sampling time 24 h): 432 µg/mL
Solubility, plateau ([2]; FeSSIF + 1% PVPVA medium, at 2 h): ~1050 µg/mL
solubility ([2]; FeSSIF + 1% PVPVA medium, at 24 h): ~1520 µg/mL
Kinetic solubility ([2]; FessiF pH 5 + 1% PVPVA, sampling time 5 min): 396 µg/mL
Kinetic solubility ([2]; FessiF pH 5 + 1% PVPVA, sampling time 30 min): 782 µg/mL
Kinetic solubility ([2]; FessiF pH 5 + 1% PVPVA, sampling time 2 h): 1053 µg/mL
Kinetic solubility ([2]; FessiF pH 5 + 1% PVPVA, sampling time 4 h): 1055 µg/mL
Kinetic solubility ([2]; FessiF pH 5 + 1% PVPVA, sampling time 24 h): 1517 µg/mL

FC(F)(F)Oc1ccc(Nc2ccc3cccc(Cl)c3n2)cc1 [ABX464 crystalline Form I, 8-chloro-N-(4-(trifluoromethoxy)phenyl)quinolin-2-amine]
solubility at 15 min ([1]; 37 °C, pH 1.2, fassgf or other biorelevant, thermodynamic from solid, gastric compartment, vial G 15 min, FaSSGF pH 1.2 + 1% PVPVA, 37° C., target about 4 mg/ml, read-out: Soluble fraction): 60 µg/mL
solubility at 30 min ([1]; 37 °C, pH 1.2, fassgf or other biorelevant, thermodynamic from solid, gastric compartment, vial G 30 min, FaSSGF pH 1.2 + 1% PVPVA, 37° C., target about 4 mg/ml, read-out: Soluble fraction): 70 µg/mL
solubility ([1]; 37 °C, pH 6.5, fassif, thermodynamic from solid, intestinal compartment at pH 6.5 of the fasted human in vitro model, read-out: Solubility (ABX464 soluble fraction) in the intestinal compartment): ~80 µg/mL (≈ 236 µM)
solubility at 15 min ([1]; 37 °C, pH 6.5, fassif, thermodynamic from solid, intestinal compartment, vial I 15 min (45 min total), FaSSIF x2 pH 6.5/sodium bicarbonate 90/10 added, 37° C., target about 2 mg/ml, read-out: Soluble fraction): 60 µg/mL (≈ 177 µM)
solubility at 30 min ([1]; 37 °C, pH 6.5, fassif, thermodynamic from solid, intestinal compartment, vial I 30 min (60 min total), FaSSIF x2 pH 6.5/sodium bicarbonate 90/10 added, 37° C., target about 2 mg/ml, read-out: Soluble fraction): 70 µg/mL (≈ 207 µM)
solubility at 60 min ([1]; 37 °C, pH 6.5, fassif, thermodynamic from solid, intestinal compartment, vial I 60 min (90 min total), FaSSIF x2 pH 6.5/sodium bicarbonate 90/10 added, 37° C., target about 2 mg/ml, read-out: Soluble fraction): 70 µg/mL (≈ 207 µM)
solubility at 120 min ([1]; 37 °C, pH 6.5, fassif, thermodynamic from solid, intestinal compartment, vial I 120 min (150 min total), FaSSIF x2 pH 6.5/sodium bicarbonate 90/10 added, 37° C., target about 2 mg/ml, read-out: Soluble fraction): 80 µg/mL (≈ 236 µM)
Crystalline phase conversion as detected by XRPD ([1]; intestinal compartment): no crystalline phase conversion
solubility kinetic at 5 min (physchem; [3]): 6 µg/mL
solubility kinetic at 30 min (physchem; [3]): 22 µg/mL
solubility kinetic at 2 h (physchem; [3]): 47 µg/mL
solubility kinetic at 4 h (physchem; [3]): 62 µg/mL
solubility kinetic at 24 h (physchem; [3]): 72 µg/mL
solubility at 2 h (physchem; [4]): ~300 µg/mL
solubility at 24 h (physchem; [4]): ~420 µg/mL
solubility kinetic at 5 min (physchem; [5]): 54 µg/mL
solubility kinetic at 30 min (physchem; [5]): 153 µg/mL
solubility kinetic at 2 h (physchem; [5]): 297 µg/mL
solubility kinetic at 4 h (physchem; [5]): 358 µg/mL
solubility kinetic at 24 h (physchem; [5]): 419 µg/mL
